Experiments:
[1] = tested on: α-SMA expression in MRC5 cells; experiment: α-SMA expression in MRC5 cells co-treated with TGFβ; assay type: cell-based, human
Method: (§1) FIG. 15A. Diagram of the BC-1485 synthesis process. FIGS. 15B-15C. Docking studies of the lead compound, BC-1485, interacting with the FIEL1-HECT domain. FIG. 15D. MRC5 cells were treated with the compound at various doses; cells were also co-treated with TGFβ at 2 ng/ml. 18 h later, cells were collected and assayed for α-SMA expression. FIG. 15E. MRC5 cells were seeded in 35 mm glass bottom dishes before co-treatment with TGFβ at 2 ng/ml and BC-1480 or BC1485 at 5μM. FIG. 15F. PIAS4 protein half-life determination after BC-1480 or BC1485 treatment at 5μM for 18 h. FIG. 15G. PIAS4 and KIAA0317 mRNA analysis after BC1485 treatment for 18 h.
MLE cells were cultured in Dulbecco's Modified Eagle Medium-F12 (Gibco) supplemented with 10% fetal bovine serum (DMEM-10). 293T cells were cultured in Dulbecco's Modified Eagle Medium (Gibco) supplemented with 10% fetal bovine serum (DMEM-10). MRC5 cells were cultured in Eagle's Minimum Essential Medium (Gibco) supplemented with 10% fetal bovine serum (EMEM-10). For protein expression in MLE cells, nucleofection was used following Amaxa's protocol. For protein overexpression in 293T cells, Fugene6HD transfection reagents were used following the manufacturer's protocol. For protein expression in MRC5 cells, MRC-5 Cell Avalanche™ Transfection Reagent was used following manufacturer's protocol. Cells were treated with TGFβ at 0-2 ng/ml for 0-18 h. For FIEL1, PKCξ, or GSK3β knockdown studies in cells, scramble shRNA, KIAA0317, PKCξ, or GSK3β shRNA were used to transfect cells for 48 h. For drug treatment, compounds were solubilized in DMSO before being added to the cells for up to 18 h. Cell lysates were prepared by brief sonication in 150 mM NaCl, 50 mM Tris, 1.0 mM EDTA, 2 mM dithiothreitol, 0.025% sodium azide, and 1 mM phenylmethylsulfonyl fluoride (Buffer A) at 4° C. For half-life study, MLE cells were exposed to cycloheximide (40 μg/ml) in a time dependent manner for up to 8 h. Cells were then collected and immunoblotted.

[2] = tested on: KIAA0317 and PIAS4 mRNA; experiment: PIAS4 and KIAA0317 mRNA analysis (RT-qPCR); assay type: cell-based; conditions: treatment for 18 h; FIG. 15G
Method: as §1
Total RNA was isolated and reverse transcription was performed followed by real-time quantitative PCR with SYBR Green qPCR mixture as described in Butler et al. J. Biol. Chem. 2010, […]: 6246-6258. All mutant PIAS4 and KIAA0317 plasmid constructs were generated using PCR-based approaches and appropriate primers and subcloned into a pcDNA3.1D/V5-HIS vector.

In the case of `CC(NC(=O)c1ccc(NS(=O)(=O)c2ccc3[nH]c(=O)[nH]c3c2)cc1)C(=O)N(C)C` (stereo not shown) [BC-1485], the “inhibition of TGFβ pathway” value ([1]; FIG. 15) is reported as “inhibition of TGFβ pathway”, the IC50 ([1]; MRC5 cells, TGFβ 2 ng/ml, 18 h, FIG. 15D, read-out: IC50 for decrease of α-SMA expression) is reported as roughly 32 nM and the “KIAA0317 mRNA levels” value [2] is reported as “did not significantly alter”. For the same compound, the “PIAS4 mRNA levels” value [2] was “did not significantly alter”.

Reference: US10968183B2, “Small molecule FIEL1 inhibitor in inflammatory and fibrotic lung injury” (UNIVERSITY OF PITTSBURGH—OF THE COMMONWEALTH SYSTEM OF …, priority 2015, dated 2021)
